Results taken from US11781160B2, “Methods for the production of methacrylates” (priority 2018, dated 2023).

Experiments:
[1] = test system: gene transcription in double mutant; test: Transcriptome analysis with added BMA, double mutant
Method: (§1) Transcriptome analysis was carried out to characterize transcriptional activity in mutant microorganisms using standard methods.
(§2) Sample Preparation • 1) Streak strains onto fresh MSX agar (15 g/L) plates directly from the cryostocks and incubate overnight at 37° C. • 2) Isolate single colonies and inoculate pre-cultures in MSX, using 50 ml shake flasks. Incubate overnight at 37° C. and 250 rpm. • 3) Inoculate cultures in MSX to an initial OD600 of 0.05, using 250 mL pyrex shake flasks with 24/29 neck join. Incubate at 37° C. and 250 rpm. Do 4 biological replicates (3 replicates for sequencing plus one backup)—4 flasks per strain. • 4) Seal shake flasks with sterile Suba seals. To monitor OD, take samples using a sterile syringe and needle after first swabbing the Suba seals with 70% ethanol. Monitor OD. • 5) When OD reaches 0.3, collect first sample for RNA extraction (“before” sample) into a pre-chilled falcon. Keep samples on ice. • 6) Immediately after, add 20% (v/v) BMA. Re-incubate cultures. • 7) Quickly process the samples according to the RNeasy kit protocol, until step 6 of protocol 1. Always keep samples on ice and store it at −80° C. until further use, if possible, flash freeze in liquid nitrogen it before storing. • 8) One hour after the first sample collection/BMA addition, collect the second sample for RNA extraction (“after” sample). Proceed as explained before. • 9) Continue to monitor the OD until the cultures reach 24 h. • To summarise, each strain tested will have 6 samples to send for sequencing, 3 collected right before the addition and 3 collected one hour after, plus 1 “back-up” for before and after, in case something goes wrong during extraction (8 samples total). Besides the WT strain with the addition of BMA, samples were also collected from a WT culture with no BMA, one hour after reaching OD of 0.3, as a control.
(§3) Transcription was compared for a double mutant and the wild-type in the presence and absence of BMA relative to the level in the wild type in the absence of BMA. For the avoidance of doubt the level in the table is the ratio of the level in the strain under the BMA exposure relative to the level in the wild type in the absence of added BMA.

E. coli MG1655 = test: Growth in MSX medium with 20% (v/v) BMA, wild type; format: cell-based, Escherichia coli
E. coli BW25113 ΔacrR = test: Growth in MSX medium with 20% (v/v) BMA, knock-out strain; format: cell-based, Escherichia coli; conditions: 20% (v/v) BMA added immediately after inoculation
[2] = test system: E. coli BW25113 isolate 8-rob(R156H) rpoB(T1037P) torY(A87T) acrR(49Yfs); test: Growth kinetics of isolated strain 8 with 20% v/v BMA
[3] = test system: gene transcription in strain 22; test: Transcriptome analysis with added BMA, strain 22
Method: as §1, §2, §3

[4] = test system: E. coli MG1655 soxR(R20H)acrR(V29G); test: Growth in MSX medium with 20% (v/v) BMA, double mutant; format: cell-based, Escherichia coli
[5] = test system: E. coli BW25113 isolate 19-marR(V84G) rpoC(R1075C) ompR(R15S) acrB(T3791) acrR(indels); test: Growth kinetics of isolated strain 19 with 20% v/v BMA
[6] = test system: gene transcription in strain 21; test: Transcriptome analysis with added BMA, strain 21
Method: as §1, §2, §3

[7] = test system: gene transcription in wild type; test: Transcriptome analysis with added BMA, wild type
Method: as §1, §2, §3

[8] = 20% (v/v) BMA added immediately after inoculation

## C=C(C)C(=O)OCCCC [BMA, butyl 2-methylprop-2-enoate]
[1]; LM double mutant
  acrA transcription level relative to wild type without BMA: 5.13
  acrB transcription level relative to wild type without BMA: 4.99
[1]; double mutant
  IdhA transcription level relative to wild type without BMA: 30.42
  adiY transcription level relative to wild type without BMA: 10.80
  ariR transcription level relative to wild type without BMA: 8.91
  asr transcription level relative to wild type without BMA: 711.06
  bssR transcription level relative to wild type without BMA: 5.47
  ibpA transcription level relative to wild type without BMA: 80.35
  ibpB transcription level relative to wild type without BMA: 672.54
  narG transcription level relative to wild type without BMA: 3.23
  nirB transcription level relative to wild type without BMA: 3.28
  nirD transcription level relative to wild type without BMA: 3.57
  pspA transcription level relative to wild type without BMA: 27.60
  pspB transcription level relative to wild type without BMA: 11.73
  pspD transcription level relative to wild type without BMA: 10.00
  pspc transcription level relative to wild type without BMA: 11.09
  raiA transcription level relative to wild type without BMA: 36.36
  rmf transcription level relative to wild type without BMA: 17.63
  soxS transcription level relative to wild type without BMA: 20.93
  spy transcription level relative to wild type without BMA: 99.47
  ybfA transcription level relative to wild type without BMA: 59.92
  ybhG transcription level relative to wild type without BMA: 10.78
  ybiH transcription level relative to wild type without BMA: 7.73
  ydgU transcription level relative to wild type without BMA: 188.87
  yhjx transcription level relative to wild type without BMA: 2.32
  yibT transcription level relative to wild type without BMA: 43.57
  ymgA transcription level relative to wild type without BMA: 9.97
  ymgC transcription level relative to wild type without BMA: 11.68
  ynfM transcription level relative to wild type without BMA: 29.92
  yohk transcription level relative to wild type without BMA: 19.51
E. coli MG1655; 20% (v/v) BMA added immediately after inoculation, WT
  Growth in the presence of BMA: unable to grow
E. coli MG1655; MSX medium containing 20% (v/v) BMA, 30 mL vials, 37° C., 250 rpm
  Time after which growth was observed: 72 h
E. coli BW25113 ΔacrR
  Growth in the presence of BMA: unable to grow
[2]
  Growth rate: 0.712 ± 0.015 h⁻¹
  Lag time: 5 h
  Max cell concentration: 0.435 ± 0.010 g/L
[3]
  IdhA transcription level relative to wild type without BMA: 25.80
  acrA transcription level relative to wild type without BMA: 7.44
  acrB transcription level relative to wild type without BMA: 7.17
  adiY transcription level relative to wild type without BMA: 23.19
  ariR transcription level relative to wild type without BMA: 12.95
  asr transcription level relative to wild type without BMA: 225.15
  bssR transcription level relative to wild type without BMA: 71.24
  ibpA transcription level relative to wild type without BMA: 70.31
  ibpB transcription level relative to wild type without BMA: 107.99
  narG transcription level relative to wild type without BMA: 61.85
  nirB transcription level relative to wild type without BMA: 20.40
  nirD transcription level relative to wild type without BMA: 26.97
  pspA transcription level relative to wild type without BMA: 47.39
  pspB transcription level relative to wild type without BMA: 35.43
  pspD transcription level relative to wild type without BMA: 38.90
  pspc transcription level relative to wild type without BMA: 39.73
  raiA transcription level relative to wild type without BMA: 52.61
  rmf transcription level relative to wild type without BMA: 17.43
  soxS transcription level relative to wild type without BMA: 3.66
  spy transcription level relative to wild type without BMA: 45.77
  ybfA transcription level relative to wild type without BMA: 36.33
  ybhG transcription level relative to wild type without BMA: 21.92
  ybiH transcription level relative to wild type without BMA: 16.75
  ydgU transcription level relative to wild type without BMA: 94.74
  yhjx transcription level relative to wild type without BMA: 902.70
  yibT transcription level relative to wild type without BMA: 77.30
  ymgA transcription level relative to wild type without BMA: 6.44
  ymgC transcription level relative to wild type without BMA: 5.45
  ynfM transcription level relative to wild type without BMA: 61.15
  yohk transcription level relative to wild type without BMA: 19.75
[4]; 20% (v/v) BMA added during mid-exponential phase
  Tolerance to BMA: enhanced tolerance to BMA compared to the soxR(R20H) mutation alone
[4]; [8]
  Growth compared with the single mutant with the soxR mutation: able to grow better than the single mutant
  Growth in the presence of BMA: able to grow
[5]
  Growth rate: 0.701 ± 0.007 h⁻¹
  Lag time: 5 h
  Max cell concentration: 0.653 ± 0.023 g/L
[6]
  IdhA transcription level relative to wild type without BMA: 20.48
  acrA transcription level relative to wild type without BMA: 5.63
  acrB transcription level relative to wild type without BMA: 8.93
  adiY transcription level relative to wild type without BMA: 10.74
  ariR transcription level relative to wild type without BMA: 6.13
  asr transcription level relative to wild type without BMA: 11.63
  bssR transcription level relative to wild type without BMA: 198.48
  ibpA transcription level relative to wild type without BMA: 29.21
  ibpB transcription level relative to wild type without BMA: 30.97
  narG transcription level relative to wild type without BMA: 65.34
  nirB transcription level relative to wild type without BMA: 39.43
  nirD transcription level relative to wild type without BMA: 42.50
  pspA transcription level relative to wild type without BMA: 21.16
  pspB transcription level relative to wild type without BMA: 14.98
  pspD transcription level relative to wild type without BMA: 14.80
  pspc transcription level relative to wild type without BMA: 14.67
  raiA transcription level relative to wild type without BMA: 22.55
  rmf transcription level relative to wild type without BMA: 36.77
  soxS transcription level relative to wild type without BMA: 1.08
  spy transcription level relative to wild type without BMA: 1.77
  ybfA transcription level relative to wild type without BMA: 33.06
  ybhG transcription level relative to wild type without BMA: 9.26
  ybiH transcription level relative to wild type without BMA: 7.20
  ydgU transcription level relative to wild type without BMA: 6.39
  yhjx transcription level relative to wild type without BMA: 3.11
  yibT transcription level relative to wild type without BMA: 95.47
  ymgA transcription level relative to wild type without BMA: 2.43
  ymgC transcription level relative to wild type without BMA: 1.53
  ynfM transcription level relative to wild type without BMA: 65.39
  yohk transcription level relative to wild type without BMA: 7.09
[7]
  IdhA transcription level relative to wild type without BMA: 0.59
  acrA transcription level relative to wild type without BMA: 0.64
  acrB transcription level relative to wild type without BMA: 0.98
  adiY transcription level relative to wild type without BMA: 0.19
  ariR transcription level relative to wild type without BMA: 0.44
  asr transcription level relative to wild type without BMA: 0.22
  bssR transcription level relative to wild type without BMA: 0.46
  ibpA transcription level relative to wild type without BMA: 0.09
  ibpB transcription level relative to wild type without BMA: 0.42
  narG transcription level relative to wild type without BMA: 0.40
  nirB transcription level relative to wild type without BMA: 0.06
  nirD transcription level relative to wild type without BMA: 0.57
  pspA transcription level relative to wild type without BMA: 0.04
  pspB transcription level relative to wild type without BMA: 0.73
  pspD transcription level relative to wild type without BMA: 0.14
  pspc transcription level relative to wild type without BMA: 0.10
  raiA transcription level relative to wild type without BMA: 0.11
  rmf transcription level relative to wild type without BMA: 0.28
  soxS transcription level relative to wild type without BMA: 0.24
  spy transcription level relative to wild type without BMA: 3.91
  ybfA transcription level relative to wild type without BMA: 0.39
  ybhG transcription level relative to wild type without BMA: 0.19
  ybiH transcription level relative to wild type without BMA: 0.04
  ydgU transcription level relative to wild type without BMA: 7.95
  yhjx transcription level relative to wild type without BMA: 1.72
  yibT transcription level relative to wild type without BMA: 0.09
  ymgA transcription level relative to wild type without BMA: 0.16
  ymgC transcription level relative to wild type without BMA: 6.27
  ynfM transcription level relative to wild type without BMA: 0.07
  yohk transcription level relative to wild type without BMA: 0.13
